According to US20130053330A1, “Fertilization Prediction and Promotion” (Karolinska Institutet Innovations AB, priority 2010, published 2013):
Peptide text beside a SMILES is read from it.

B1: Histidine-rich glycoprotein (protein)
chain: VSPTDCSAVEPEAEKALDLINKRRRDGYLFQLLRIADAHLDRVENTTVYYLVLDVQESDCSVLSRKYWNDCEPPDSRRPSEIVIGQCKVIATRHSHESQDLRVIDFNCTTSSVSSALANTKDSPVLIDFFEDTERYRKQANKALEKYKEENDDFASFRVDRIERVARVRGGEGTGYFVDFSVRNCPRHHFPRHPNVFGFCRADLFYDVEALDLESPKNLVINCEVFDPQEHENINGVPPHLGHPFHWGGHERSSTTKPPFKPHGSRDHHHPHKPHEHGPPPPPDERDHSHGPPLPQGPPPLLPMSCSSCQHATFGTNGAQRHSHNNNSSDLHPHKHHSHEQHPHGHHPHAHHPHEHDTHRQHPHGHHPHGHHPHGHHPHGHHPHGHHPHCHDFQDYGPCDPPPHNQGHCCHGHGPPPGHLRRRGPGKGPRPFHCRQIGSVYRLPPLRKGEVLPLPEANFPSFPLPHHKHPLKPDNQPFPQSVSESCPGKFKSGFPQVSMFFTHTFPK

Legend:
[1] = tested on: Human endometrial endothelial (HEE) cells; assay: Cell proliferation assay, HEE cells; type: cell-based; conditions: 100 ng/ml; starvation medium with 0.25% FCS; cell numbers scored after 5 days
Method: (§1) By using a proliferation and a migration (chemotaxis) assay the importance of HRG as well as HRG peptides was analyzed. The peptides used correspond to a fragment of full-length HRG containing 35 amino acids covering position 204 in the protein; the proline of native HRG in that specific position is changed to serine. The amino acid sequences are: […] NO: 7, named HRGPro herein) and […] NO: 8, named […] herein); the peptides were produced and purchased from Innovagen, Lund, Sweden. Cells (G10 and HEEC) in culture medium supplemented with 10% FCS were seeded into 24-well dishes. After 2 h the medium was changed to starvation medium (culture medium containing 0.25% FCS) and the incubation continued for an additional 24 h. The medium was changed again at day 2 and day 4 (starvation medium), and at the same time FGF-2 or VEGF, HRG or HRG Pro or Ser containing peptide were added. As a control, cells were cultured in basal culture medium supplemented with 10% FCS. Cell numbers were scored after 5 days. Human endometrial endothelial (HEE) cells were cultured in starvation medium containing culture medium (3 H) supplemented with 0.25% FCS.

[2] = tested on: G10 cells (Porcine aortic endothelial cells); assay: Chemotaxis (migration) assay in modified Boyden chamber, G10 cells; type: cell-based, pig; conditions: for inhibition of VEGF-induced migration of G10 cells: 100 ng/ml in lower chamber, 4-6 h at 37° C.
Method: By using a proliferation and a migration (chemotaxis) assay the importance of HRG as well as HRG peptides was analyzed. The peptides used correspond to a fragment of full-length HRG containing 35 amino acids covering position 204 in the protein; the proline of native HRG in that specific position is changed to serine. The amino acid sequences are: […] (SEQ ID NO: 7, named HRGPro herein) and […] (SEQ ID NO: 8, named HRGSer herein); the peptides were produced and purchased from Innovagen, Lund, Sweden.
The assay was performed in a modified Boyden chamber using micropore nitrocellulose filters (8 μm thick, 8 μm pore) coated with type-1 collagen solution at 100 μg/ml (Vitrogen 100, Collagen Corp.). Cells (G10 and HEEC cells) were trypsinized and resuspended at a concentration of 5.5×10^5 cells/ml in serum-free culture medium containing 0.25% fetal calf serum (FCS). The cell suspension was placed in the upper chamber, and the serum-free medium containing 0.25% FCS and FGF-2 or VEGF, HRG or the HRGPro or HRGSer peptide, was placed below the filter in the lower chamber. As a positive control, medium containing 10% FCS was added to the lower chamber. After 4-6 h at 37° C., the medium was removed and the cells sticking to the filter were fixed in pure methanol and stained with Giemsa stain. The cells that had migrated through the filter were counted.
The effects of HRG, HRGPro and HRGSer on migration of G10 and HEE cells were examined by using a Boyden chamber.

[3] = tested on: Human endometrial endothelial (HEE) cells; assay: Chemotaxis (migration) assay in modified Boyden chamber, HEE cells; type: cell-based; conditions: VEGF 10 ng/ml; for inhibition of VEGF-induced migration of HEE cells: 100 ng/ml in lower chamber, 4-6 h at 37° C.
Method: By using a proliferation and a migration (chemotaxis) assay the importance of HRG as well as HRG peptides was analyzed. The peptides used correspond to a fragment of full-length HRG containing 35 amino acids covering position 204 in the protein; the proline of native HRG in that specific position is changed to serine. The amino acid sequences are: […] NO: 7, named HRGPro herein) and […] NO: 8, named […] herein); the peptides were produced and purchased from Innovagen, Lund, Sweden. The assay was performed in a modified Boyden chamber using micropore nitrocellulose filters (8 μm thick, 8 μm pore) coated with type-1 collagen solution at 100 μg/ml (Vitrogen 100, Collagen Corp.). Cells (G10 and HEEC cells) were trypsinized and resuspended at a concentration of 5.5×10^5 cells/ml in serum-free culture medium containing 0.25% fetal calf serum (FCS). […] After 4-6 h at 37° C., the medium was removed and the cells sticking to the filter were fixed in pure methanol and stained with Giemsa stain. The cells that had migrated through the filter were counted. The effects of HRG, HRGPro and […] on migration of G10 and HEE cells were examined by using a Boyden chamber.

[4] = tested on: G10 cells (Porcine aortic endothelial cells); conditions: 100 ng/ml; starvation medium (Ham's F12, 0.25% FCS); cell numbers scored after 5 days
Method: as §1, with “G10 cells (Porcine aortic” for “Human endometrial”, “cells)” for “(HEE) cells”, “(Ham's F12)” for “(3 H)”

| Molecule | increase in number of HEE cells compared with culture in starvation medium [1] | inhibition of VEGF-induced migration of G10 cells [2] | inhibition of VEGF-induced migration of HEE cells [3] | induction of migration of HEE cells [3] | induction of migration of G10 cells ([2]; FGF 20 ng/ml) | inhibition of proliferation of G10 cells (decrease compared with culture in starvation medium) [4] |
| --- | --- | --- | --- | --- | --- | --- |
| CC(C)[C@H](NC(=O)[C@H](CC(N)=O)NC(=O)[C@@H]1CCCN1C(=O)[C@H](Cc1c[nH]cn1)NC(=O)[C@H](CCCNC(=N)N)NC(=O)[C@@H]1CCCN1C(=O)[C@H](Cc1ccccc1)NC(=O)[C@H](Cc1c[nH]cn1)NC(=O)[C@H](Cc1c[nH]cn1)NC(=O)[C@H](CCCNC(=N)N)NC(=O)[C@H](CO)NC(=O)[C@H](CS)NC(=O)[C@H](CC(N)=O)NC(=O)[C@H](CCCNC(=N)N)NC(=O)[C@@H](NC(=O)[C@H](CO)NC(=O)[C@H](Cc1ccccc1)NC(=O)[C@H](CC(=O)O)NC(=O)[C@@H](NC(=O)[C@H](Cc1ccccc1)NC(=O)[C@H](Cc1ccc(O)cc1)NC(=O)CNC(=O)[C@@H](NC(=O)CNC(=O)[C@H](CCC(=O)O)NC(=O)CNC(=O)CNC(=O)[C@@H](N)CCCNC(=N)N)[C@@H](C)O)C(C)C)C(C)C)C(=O)N[C@@H](Cc1ccccc1)C(=O)NCC(=O)N[C@@H](Cc1ccccc1)C(=O)N[C@@H](CS)C(=O)N[C@@H](CCCNC(=N)N)C(=O)N[C@@H](C)C(=O)N[C@@H](CC(=O)O)C(=O)O [HRGSer] (H-RGGEGTGYFVDFSVRNCSRHHFPRHPNVFGFCRAD-OH; N-terminus and C-terminus assumed) | 86% | inhibited significantly | inhibited significantly | – | – | – |
| VEGF [reference compound] | – | – | – | induced migration | – | – |
| FGF: Fibroblast Growth Factor, used to induce migration of G10 cells [reference compound] | – | – | – | – | induced migration | – |
| CC(C)[C@H](NC(=O)[C@H](CC(N)=O)NC(=O)[C@@H]1CCCN1C(=O)[C@H](Cc1c[nH]cn1)NC(=O)[C@H](CCCNC(=N)N)NC(=O)[C@@H]1CCCN1C(=O)[C@H](Cc1ccccc1)NC(=O)[C@H](Cc1c[nH]cn1)NC(=O)[C@H](Cc1c[nH]cn1)NC(=O)[C@H](CCCNC(=N)N)NC(=O)[C@@H]1CCCN1C(=O)[C@H](CS)NC(=O)[C@H](CC(N)=O)NC(=O)[C@H](CCCNC(=N)N)NC(=O)[C@@H](NC(=O)[C@H](CO)NC(=O)[C@H](Cc1ccccc1)NC(=O)[C@H](CC(=O)O)NC(=O)[C@@H](NC(=O)[C@H](Cc1ccccc1)NC(=O)[C@H](Cc1ccc(O)cc1)NC(=O)CNC(=O)[C@@H](NC(=O)CNC(=O)[C@H](CCC(=O)O)NC(=O)CNC(=O)CNC(=O)[C@@H](N)CCCNC(=N)N)[C@@H](C)O)C(C)C)C(C)C)C(=O)N[C@@H](Cc1ccccc1)C(=O)NCC(=O)N[C@@H](Cc1ccccc1)C(=O)N[C@@H](CS)C(=O)N[C@@H](CCCNC(=N)N)C(=O)N[C@@H](C)C(=O)N[C@@H](CC(=O)O)C(=O)O [HRGPro] (H-RGGEGTGYFVDFSVRNCPRHHFPRHPNVFGFCRAD-OH; N-terminus and C-terminus assumed) | 13% | A tendency | A tendency | – | – | – |
| B1 | 6% | A tendency | A tendency | – | – | 24% |
